From US10988523B2, “Modified lipidated Relaxin B chain peptides and their therapeutic use” (Sanofi, priority 2018, dated 2021)
*1 amine or outer side, *2 acyl side, *3 side chain or, on linkers, in order; H or OH if unused. Where a SMILES comes first, the peptide text is derived from it. Side-chain parts run from the residue outwards. [ ]: non-standard residue; d: D form. The star is where a group is joined. X1 = CCCCCCCCCCCCCCCCCC(=O)N[C@@H](CCC(=O)N[C@@H](CCC(=O)N[C@@H](CCC(=O)NCCCC[C@H](NC(=O)COCC(=O)NCCCOCCOCCOCCCNC(=O)COCC(=O)NCCCOCCOCCOCCCN*)C(N)=O)C(=O)O)C(=O)O)C(=O)O; γGlu = O=C(O)[C@H](CCC(=O)[*:2])N[*:1]; Palmitoyl = CCCCCCCCCCCCCCCC(=O)*; Nle = CCCC[C@H](N)C(=O)O; AEEA = NCCOCCOCC(=O)O; Aib = CC(C)(N)C(=O)O

Columns and labels:
[1] = target: T1, RXFP1 (Homo sapiens, UniProt Q9HBX9); assay: OVCAR5 cAMP assay (HTRF), RXFP1 agonist activity; type: cell-based; conditions: for EC50: OVCAR5 cells, cAMP HTRF, read-out: EC50 (nM), OVCAR 5 cells (cAMP); for Emax: OVCAR-5, maximal cAMP relative to H2-relaxin maximum (100%), read-out: EMax, OVCAR 5 cells (cAMP)
T1 construct: OVCAR5 cells expressing endogenous RXFP1; endogenous in cells; host or cells: OVCAR5 cells
T1 sequence (Q9HBX9 1-757): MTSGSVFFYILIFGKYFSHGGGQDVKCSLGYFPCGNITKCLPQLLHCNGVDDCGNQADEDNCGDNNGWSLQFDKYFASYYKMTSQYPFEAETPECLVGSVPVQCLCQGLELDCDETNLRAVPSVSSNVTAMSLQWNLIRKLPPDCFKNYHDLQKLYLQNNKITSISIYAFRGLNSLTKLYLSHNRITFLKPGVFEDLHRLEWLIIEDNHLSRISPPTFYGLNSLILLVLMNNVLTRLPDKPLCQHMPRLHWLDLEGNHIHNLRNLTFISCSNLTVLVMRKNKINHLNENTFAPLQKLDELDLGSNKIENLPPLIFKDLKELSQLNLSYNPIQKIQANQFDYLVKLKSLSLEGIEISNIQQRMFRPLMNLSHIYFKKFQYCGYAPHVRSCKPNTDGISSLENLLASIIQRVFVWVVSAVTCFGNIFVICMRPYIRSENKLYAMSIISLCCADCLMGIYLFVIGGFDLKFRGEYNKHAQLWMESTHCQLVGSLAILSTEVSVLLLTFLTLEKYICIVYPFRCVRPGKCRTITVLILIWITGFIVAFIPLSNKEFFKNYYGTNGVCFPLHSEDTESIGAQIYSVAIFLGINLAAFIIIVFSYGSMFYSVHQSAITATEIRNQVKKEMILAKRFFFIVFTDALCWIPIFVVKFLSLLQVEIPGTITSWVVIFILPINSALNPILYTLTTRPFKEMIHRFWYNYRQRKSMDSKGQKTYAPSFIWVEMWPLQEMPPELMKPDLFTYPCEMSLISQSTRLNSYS
Method in brief: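 cAMP accumulation readout: after 1 mM IBMX for 40 min, endogenous-RXFP1 OVCAR5 cells got rising peptide concentrations without FCS, 30 min, 37° C, then lysis with HTRF cAMP reagents. Nonlinear regression gave EC50; Emax expressed relative to H2-relaxin maximum, same occasion.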

[2] = Stability testing of peptides in human plasma or blood; type: in vitro ADME; conditions: 37° C.; for Human Plasma stability % remaining T = 0: human plasma or blood, T = 0 (reference), 5 μM; for remaining at 1 h, 5 µM / remaining at 4 h, 5 µM: human plasma; for remaining at 1 h, 5 µM: read-out: Human Plasma stability % remaining 1 h; for remaining at 4 h, 5 µM: read-out: Human Plasma stability % remaining 4 h
Method: (§1) Prior to the testing of stability in plasma (or blood) of a peptide batch, its purity (HPLC-UV) was determined.
(§2) Rat and Human plasma: anti-coagulant sodium or lithium heparin.
(§3) Rat and Human blood: anti-coagulant sodium or lithium heparin. • Stock solution: • 100 μM solution of study compound in 50 mM Phosphate buffer pH 7.4. • 950 μL plasma (or blood) was pre-incubated for 5 min at 37° C. 50 μL of compound stock solution was added. Final compound concentration=5 μM. Vortex and transfer 1504, plasma (or blood) into an Eppendorf for each time point. The time points […] were carried out in duplicate for each species.
(§4) After incubation 150 μL, plasma (or blood) was extracted with 600 μL, Acetonitrile containing with 1% TFA. Then, vortexed and centrifuged 10 min at 14600 rpm. 200 μL supernatant was dried under N2. The sample was reconstituted in 200 μL of H2O/CH3CN 98/2+0.1% FA+50 ng/ml Labetalol and analyzed using the analytical system used in solubility and stability studies.
(§5) For determination of the amount of the remaining peptide, the peak areas of the target compound at t0 and each time point […] were compared, resulting in “% remaining peptide”, following the equation: % remaining peptide=[(peak area peptide time)×100]/peak area peptide t0. The stability is expressed as “% remaining peptide”.

[3] = Stability testing of peptides in rat plasma or blood; type: in vitro ADME; conditions: 37° C.; for Rat plasma stability % remaining T = 0: rat plasma or blood, T = 0 (reference), 5 μM; for remaining at 1 h, 5 µM / remaining at 4 h, 5 µM: rat plasma; for remaining at 1 h, 5 µM: read-out: Rat plasma stability % remaining 1 h; for remaining at 4 h, 5 µM: read-out: Rat plasma stability % remaining 4 h
Method: as §1, §2, §3, §4, §5

Row | EC50 [1] | Emax [1] | Human Plasma stability % remaining T = 0 [2] | remaining at 1 h, 5 µM [2] | remaining at 4 h, 5 µM [2] | Rat plasma stability % remaining T = 0 [3] | remaining at 1 h, 5 µM [3] | remaining at 4 h, 5 µM [3] | SMILES
1 | 0.17 nM | 80% | 100% | 101% | 114% | 100% | 96% | 98% | CCCCCCCCCCCCCCCC(=O)N[C@@H](CCC(=O)NCCCC[C@H](NC(=O)CC[C@H](NC(=O)CC[C@H](NC(=O)CC[C@H](NC(=O)COCCOCCNC(=O)COCCOCCNC(=O)COCCOCCNC(=O)[C@H](CCCCN)NC(=O)[C@H](CCCCN)NC(=O)[C@H](CCCNC(=N)N)NC(=O)C(C)(C)NC(=O)[C@H](CO)NC(=O)[C@H](Cc1c[nH]c2ccccc12)NC(=O)[C@@H](NC(=O)[C@H](CO)NC(=O)[C@H](CCCC)NC(=O)CNC(=O)[C@H](CCC(=O)O)NC(=O)C(C)(C)NC(=O)C(C)(C)NC(=O)[C@@H](NC(=O)[C@H](CCC(N)=O)NC(=O)[C@H](C)NC(=O)[C@H](CCCNC(=N)N)NC(=O)[C@@H](NC(=O)[C@H](CCCCN)NC(=O)[C@H](CCC(=O)O)NC(=O)[C@H](CCCNC(=N)N)NC(=O)CNC(=O)[C@H](CCC(=O)O)NC(=O)[C@H](CC(C)C)NC(C)=O)C(C)C)[C@@H](C)CC)[C@@H](C)O)C(=O)O)C(=O)O)C(=O)O)C(N)=O)C(=O)O [compound 110] (Ac-LEGREKVRAQI[Aib][Aib]EG[Nle]STWS[Aib]RKK[AEEA][AEEA][AEEA][γGlu][γGlu][γGlu]K([γGlu-Palmitoyl])-NH2)
2 | 0.15 nM | 96% | 100% | 86% | 90% | 100% | 99% | 89% | CCCCCCCCCCCCCCCCCC(=O)N[C@@H](CCC(=O)N[C@@H](CCC(=O)N[C@@H](CCC(=O)NCCCC[C@H](NC(=O)COCC(=O)NCCCOCCOCCOCCCNC(=O)COCC(=O)NCCCOCCOCCOCCCNC(=O)[C@H](CCCCNC(C)=O)NC(=O)[C@H](CCCCN)NC(=O)[C@H](CCCNC(=N)N)NC(=O)C(C)(C)NC(=O)[C@H](CO)NC(=O)[C@H](Cc1c[nH]c2ccccc12)NC(=O)[C@@H](NC(=O)[C@H](CO)NC(=O)[C@H](CCCC)NC(=O)CNC(=O)[C@H](CCC(=O)O)NC(=O)C(C)(C)NC(=O)C(C)(C)NC(=O)[C@@H](NC(=O)[C@H](CCCCNC(C)=O)NC(=O)[C@H](C)NC(=O)[C@H](CCCNC(=N)N)NC(=O)[C@@H](NC(=O)[C@H](CCCCN)NC(=O)[C@H](CCC(=O)O)NC(=O)[C@H](CCCNC(=N)N)NC(=O)CNC(=O)[C@H](CCC(=O)O)NC(=O)[C@H](CC(C)C)NC(C)=O)C(C)C)[C@@H](C)CC)[C@@H](C)O)C(N)=O)C(=O)O)C(=O)O)C(=O)O [compound 19] (Ac-LEGREKVRAK(Ac)I[Aib][Aib]EG[Nle]STWS[Aib]RKK(Ac)-X1)
